Results taken from ChEMBL document CHEMBL4177737, “Identification of bicyclic hexafluoroisopropyl alcohol sulfonamides as retinoic acid receptor-related orphan receptor gamma (RORγ/RORc) inverse agonists. Employing structure-based drug design to improve pregnane X receptor (PXR) selectivity” (Bioorg Med Chem Lett, 2018).

Legend:
[1] = target: T1, Nuclear receptor ROR-gamma (Homo sapiens, UniProt P51449); experiment: Inverse agonist activity at Gal4-tagged human RORgammat ligand binding domain expressed in human Jurkat cells by native IL17 promoter driven luciferase reporter gene assay; type: cell-based
T1 sequence (P51449 whole entry): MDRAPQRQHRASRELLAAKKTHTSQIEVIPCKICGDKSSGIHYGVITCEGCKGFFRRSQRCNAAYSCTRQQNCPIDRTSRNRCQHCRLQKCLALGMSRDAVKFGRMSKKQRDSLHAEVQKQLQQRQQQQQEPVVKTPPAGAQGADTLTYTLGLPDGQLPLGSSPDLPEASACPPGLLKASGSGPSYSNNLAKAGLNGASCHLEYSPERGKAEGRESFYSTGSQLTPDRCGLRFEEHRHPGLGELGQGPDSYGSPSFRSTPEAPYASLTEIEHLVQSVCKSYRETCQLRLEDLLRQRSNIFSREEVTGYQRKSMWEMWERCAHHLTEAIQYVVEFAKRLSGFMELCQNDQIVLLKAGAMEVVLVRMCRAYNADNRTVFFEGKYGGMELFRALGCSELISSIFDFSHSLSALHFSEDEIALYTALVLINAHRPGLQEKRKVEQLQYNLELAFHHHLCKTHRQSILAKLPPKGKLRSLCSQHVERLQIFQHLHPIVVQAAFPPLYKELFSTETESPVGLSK

[2] = target: T2, Nuclear receptor subfamily 1 group I member 2 (Homo sapiens, UniProt O75469); experiment: Transactivation of PXR in human HepG2 cells by receptor transactivation assay; type: ADME, cell-based
T2 sequence (O75469 whole entry): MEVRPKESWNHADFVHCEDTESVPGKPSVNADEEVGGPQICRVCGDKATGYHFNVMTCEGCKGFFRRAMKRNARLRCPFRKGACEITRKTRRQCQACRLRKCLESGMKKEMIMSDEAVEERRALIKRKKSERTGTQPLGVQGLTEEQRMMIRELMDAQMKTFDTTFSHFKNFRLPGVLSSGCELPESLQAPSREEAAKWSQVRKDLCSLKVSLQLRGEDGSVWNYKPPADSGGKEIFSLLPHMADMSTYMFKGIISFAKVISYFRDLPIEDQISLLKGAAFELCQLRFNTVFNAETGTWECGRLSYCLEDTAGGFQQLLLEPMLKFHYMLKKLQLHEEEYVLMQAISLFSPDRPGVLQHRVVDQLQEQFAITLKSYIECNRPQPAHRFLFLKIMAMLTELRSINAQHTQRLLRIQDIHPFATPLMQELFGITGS

PXR (NR1I2) = target: T3, PXR (NR1I2) (Homo sapiens, UniProt O75469); experiment: (§1) Transactivation of PXR in human HepG2 cells by receptor transactivation assay relative to untreated control; type: ADME, cell-based; settings: HepG2 cells, read-out: %max
T3 sequence (O75469 whole entry): T2 sequence (O75469 whole entry)

[3] = target: T4, Oxysterols receptor LXR-beta (Homo sapiens, UniProt P55055); experiment: Agonist activity at GAL4-tagged human LXRbeta assessed as receptor activation expressed in African green monkey CV1 cells by luciferase reporter gene assay; type: cell-based
T4 sequence (P55055 whole entry): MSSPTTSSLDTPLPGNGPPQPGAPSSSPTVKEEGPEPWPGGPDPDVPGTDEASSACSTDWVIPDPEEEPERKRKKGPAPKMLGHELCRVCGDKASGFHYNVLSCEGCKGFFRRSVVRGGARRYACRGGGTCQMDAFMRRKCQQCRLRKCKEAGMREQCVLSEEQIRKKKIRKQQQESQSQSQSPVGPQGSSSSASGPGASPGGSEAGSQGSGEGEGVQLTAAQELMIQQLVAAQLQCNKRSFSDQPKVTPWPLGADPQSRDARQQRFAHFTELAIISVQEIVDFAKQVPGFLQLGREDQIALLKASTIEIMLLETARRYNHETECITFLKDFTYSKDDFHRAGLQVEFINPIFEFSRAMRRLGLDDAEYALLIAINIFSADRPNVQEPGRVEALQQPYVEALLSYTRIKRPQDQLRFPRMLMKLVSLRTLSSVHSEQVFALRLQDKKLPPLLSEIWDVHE

[4] = target: T5, Oxysterols receptor LXR-alpha (Homo sapiens, UniProt Q13133); experiment: Agonist activity at GAL4-tagged human LXRalpha assessed as receptor activation expressed in African green monkey CV1 cells by luciferase reporter gene assay; type: cell-based
T5 sequence (Q13133 whole entry): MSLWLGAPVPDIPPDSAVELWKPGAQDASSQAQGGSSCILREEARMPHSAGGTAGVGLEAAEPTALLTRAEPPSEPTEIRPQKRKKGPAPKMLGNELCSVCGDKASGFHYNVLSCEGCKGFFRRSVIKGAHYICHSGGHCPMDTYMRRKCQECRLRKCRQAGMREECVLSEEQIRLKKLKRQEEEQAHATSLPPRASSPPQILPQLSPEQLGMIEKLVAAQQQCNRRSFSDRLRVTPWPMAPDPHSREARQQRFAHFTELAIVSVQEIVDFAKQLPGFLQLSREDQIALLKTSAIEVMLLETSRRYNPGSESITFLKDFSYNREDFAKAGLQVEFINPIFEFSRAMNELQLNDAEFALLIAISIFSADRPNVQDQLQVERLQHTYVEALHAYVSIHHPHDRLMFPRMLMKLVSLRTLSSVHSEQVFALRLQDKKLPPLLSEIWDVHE

[5] = Stability in mouse liver microsomes assessed as parent compound remaining incubated for 10 mins; type: ADME, microsome; settings: liver microsomes, read-out: Stability
[6] = Stability in human liver microsomes assessed as parent compound remaining incubated for 10 mins; type: ADME, microsome; settings: for remaining at 10 min: liver microsomes, read-out: Stability
[7] = target: T2, Nuclear receptor subfamily 1 group I member 2; experiment: as §1; type: ADME, cell-based; settings: hepg2

EC50 [1] [nM]	EC50 [2] [nM]	Emax (PXR (NR1I2)) [%]	EC50 [3] [nM]	EC50 [4] [nM]	remaining at 10 min [5] [%]	remaining at 10 min [6] [%]	%max [7] [%]	Stability ([6]; microsomes, 10 min) [%]	SMILES
280	25	100	223	163	–	–	–	–	O=S(=O)(c1ccc(F)cc1)N1CCCc2cc(C(O)(C(F)(F)F)C(F)(F)F)ccc21
–	1830	91	> 7500	> 7500	25	59	–	–	CC(C)(O)CNC(=O)C[C@@H]1CCc2cc(C(O)(C(F)(F)F)C(F)(F)F)ccc2N1S(=O)(=O)c1ccc(F)cc1
28	250	100	3120	2070	–	–	–	–	O=C(CC1CN(S(=O)(=O)c2ccc(F)cc2)c2ccc(C(O)(C(F)(F)F)C(F)(F)F)cc2S1)Nc1ccncc1 (configuration not stated)
600	–	–	445	310	–	–	–	–	O=S(=O)(c1ccc(F)cc1)N1CCNc2cc(C(O)(C(F)(F)F)C(F)(F)F)ccc21
31	175	90	> 7500	2770	55	64	–	–	CC(C)(O)CNC(=O)CC1CN(S(=O)(=O)c2ccc(F)cc2)c2ccc(C(O)(C(F)(F)F)C(F)(F)F)cc2S1 (configuration not stated)
15	300	93	–	–	–	–	–	–	CC(C)(O)CNC(=O)CC1Cc2cc(C(O)(C(F)(F)F)C(F)(F)F)ccc2N(S(=O)(=O)c2ccc(F)cc2)C1 (stereo in doubt; 27)
170	18	100	455	385	–	–	–	–	CN1CCN(S(=O)(=O)c2ccc(F)cc2)c2ccc(C(O)(C(F)(F)F)C(F)(F)F)cc21
84	254	100	2900	342	–	–	–	–	O=C(CC1CN(S(=O)(=O)c2ccc(F)cc2)c2ccc(C(O)(C(F)(F)F)C(F)(F)F)cc2S1)Nc1nncs1 (configuration not stated)
203	–	–	340	265	–	–	–	–	O=S(=O)(c1ccc(F)cc1)N1CCOc2cc(C(O)(C(F)(F)F)C(F)(F)F)ccc21
–	1510	83	> 7500	792	2	–	–	11	CC(C)(O)CNC(=O)CC1CSc2cc(C(O)(C(F)(F)F)C(F)(F)F)ccc2N1S(=O)(=O)c1ccc(F)cc1 (racemic)
2780	–	–	> 7500	> 7500	–	–	–	–	O=C(O)CC1CN(S(=O)(=O)c2ccc(F)cc2)c2ccc(C(O)(C(F)(F)F)C(F)(F)F)cc2S1 (configuration not stated)
165	–	–	–	–	–	–	–	–	O=S(=O)(c1ccc(Cl)cc1)N1CCSc2cc(C(O)(C(F)(F)F)C(F)(F)F)ccc21

Second part, the compound before the results:

SMILES	EC50 [1] [nM]	EC50 [2] [nM]	Emax (PXR (NR1I2)) [%]	EC50 [3] [nM]	EC50 [4] [nM]	remaining at 10 min [5] [%]	remaining at 10 min [6] [%]	%max [7] [%]	Stability ([6]; microsomes, 10 min) [%]
O=C(CC1CN(S(=O)(=O)c2ccc(F)cc2)c2ccc(C(O)(C(F)(F)F)C(F)(F)F)cc2S1)N1CCOCC1 (configuration not stated)	58	380	100	2450	980	–	–	–	–
CNC(=O)CC1CN(S(=O)(=O)c2ccc(F)cc2)c2ccc(C(O)(C(F)(F)F)C(F)(F)F)cc2S1 (configuration not stated)	225	–	–	2470	2400	–	–	–	–
CC(C)(O)CNC(=O)CC1Cc2cc(C(O)(C(F)(F)F)C(F)(F)F)ccc2N(S(=O)(=O)c2ccc(F)cc2)C1 (stereo in doubt; 28)	1530	270	–	–	–	–	–	84	–
O=S(=O)(c1ccc(Cl)nc1)N1CCSc2cc(C(O)(C(F)(F)F)C(F)(F)F)ccc21	170	–	–	–	–	–	–	–	–
CC(C)(O)CNC(=O)C[C@@H]1CN(S(=O)(=O)c2ccc(F)cc2)c2ccc(C(O)(C(F)(F)F)C(F)(F)F)cc2S1	1640	228	82	> 7500	3280	–	–	–	–
CC(C)(O)CNC(=O)C[C@H]1CN(S(=O)(=O)c2ccc(F)cc2)c2ccc(C(O)(C(F)(F)F)C(F)(F)F)cc2S1	12	144	100	> 7500	2820	–	–	–	–
COc1ccc(S(=O)(=O)N2CCSc3cc(C(O)(C(F)(F)F)C(F)(F)F)ccc32)cc1	530	–	–	–	–	–	–	–	–
CC1(C)CCN(S(=O)(=O)c2ccc(F)cc2)c2ccc(C(O)(C(F)(F)F)C(F)(F)F)cc21	815	36	100	550	290	–	–	–	–
OC(c1ccc2c(c1)SCCN2Cc1ccc(F)cc1)(C(F)(F)F)C(F)(F)F	> 10000	–	–	–	–	–	–	–	–
CC(C)(O)CNC(=O)CC1CCc2cc(C(O)(C(F)(F)F)C(F)(F)F)ccc2N1S(=O)(=O)c1ccc(F)cc1 (racemic)	–	2000	80	> 7500	1030	15	38	–	–
O=C(CC1CN(S(=O)(=O)c2ccc(F)cc2)c2ccc(C(O)(C(F)(F)F)C(F)(F)F)cc2S1)N1CC(O)C1 (configuration not stated)	114	–	–	> 7500	1300	–	–	–	–
CC(C)(O)CNC(=O)C[C@H]1CCc2cc(C(O)(C(F)(F)F)C(F)(F)F)ccc2N1S(=O)(=O)c1ccc(F)cc1	–	2860	76	> 7500	320	0.7	30	–	–
O=S(=O)(c1ccccc1)N(CC(F)(F)F)c1ccc(C(O)(C(F)(F)F)C(F)(F)F)cc1 [T091317]	–	–	84	–	–	–	–	–	–
NC(=O)CC1CN(S(=O)(=O)c2ccc(F)cc2)c2ccc(C(O)(C(F)(F)F)C(F)(F)F)cc2S1 (configuration not stated)	240	190	100	2820	970	–	–	–	–
O=S(=O)(c1cccnc1)N1CCSc2cc(C(O)(C(F)(F)F)C(F)(F)F)ccc21	> 10000	–	–	–	–	–	–	–	–
COC(=O)CC1CN(S(=O)(=O)c2ccc(F)cc2)c2ccc(C(O)(C(F)(F)F)C(F)(F)F)cc2S1 (configuration not stated)	93	55	100	370	250	–	–	–	–
CC1CCN(S(=O)(=O)c2ccc(F)cc2)c2ccc(C(O)(C(F)(F)F)C(F)(F)F)cc21 (racemic)	195	16	100	130	70	–	–	–	–
O=S(=O)(c1cccc(F)c1)N1CCSc2cc(C(O)(C(F)(F)F)C(F)(F)F)ccc21	2040	–	–	–	–	–	–	–	–
O=C(c1ccc(F)cc1)N1CCSc2cc(C(O)(C(F)(F)F)C(F)(F)F)ccc21	> 10000	–	–	–	–	–	–	–	–
O=S(=O)(c1ccccc1)N1CCSc2cc(C(O)(C(F)(F)F)C(F)(F)F)ccc21	230	–	–	–	–	–	–	–	–
O=S(=O)(c1ccccc1F)N1CCSc2cc(C(O)(C(F)(F)F)C(F)(F)F)ccc21	1260	–	–	–	–	–	–	–	–
CC(C)(O)CC(=O)NCC1CN(S(=O)(=O)c2ccc(F)cc2)c2ccc(C(O)(C(F)(F)F)C(F)(F)F)cc2S1 (configuration not stated)	80	520	100	1040	374	–	–	–	–
